Columns and labels:
[1] = test system: Aspergillus fumigatus transformed cells containing the integrated PglaA promoter (AfHIS3); test: Titration against 3-aminotriazole of PglaA-AfHIS3 promoter replacement strain; type: cell-based
Text: Aspergillus fumigatus is sensitive to the catalase inhibitor 3-aminotriazole (3-AT), which targets the product of the HIS3 gene. The concentration of 3-AT sufficient to inhibit growth of Aspergillus fumigatus is thusly dependent on the amount of HIS3 gene product present in the cells.
For instance, culturing the transformed cells containing the integrated PglaA promoter in a medium supplemented with different carbon sources or ratios of carbon sources allows the amount of AfHIS3 gene product to be increased or decreased relative to endogenous levels to generate cells that are more or less sensitive to 3-AT based on the amount of HIS3 gene product. It is known, for example, that transcription from the PglaA promoter is induced in the presence of maltose, repressed in the presence of xylose and intermediate levels of activity are detected from cells grown on glucose. By adjusting the ratio of maltose to xylose in the culture medium, the amount of transcription may be titrated, at least in a step-wise manner, to adjust levels of transcript in the cell.

[2] = test system: bar-coded strains bearing heterozygous mutations in HIS3, TUB1, ALG7, and ERG11; conditions: Saccharomyces cerevisiae, mixed population, challenged with respective compound; cited from earlier work
[3] = test system: invasive aspergillosis (IA); conditions: patients with invasive aspergillosis; cited from earlier work
[4] = test system: wild-type Aspergillus fumigatus strain CEA 10; test: Azole sensitivity on agar gradient plates, wild-type strain; type: cell-based; conditions: versus AfERG11 and AfERG11β knockout strains
Text: (§1) Aspergillus fumigatus strains were constructed in which either the AfERG11 gene or the AfERG11β gene had been “knocked out.” Each of these strains was compared to the wild-type Aspergillus fumigatus strain CEA 10 with respect to its sensitivity, as analyzed on agar gradient plates, to two representative azole compounds, ketoconazole and itraconazole.

[5] = test system: AfERG11β knockout strain and AfERG11α knockout strain; test: Azole sensitivity on agar gradient plates, knockout strains; type: cell-based, Aspergillus fumigatus
Text: as §1

Nc1nc[nH]n1 [3-AT, 3-aminotriazole]
sensitivity of Aspergillus fumigatus to 3-aminotriazole ([1]; Aspergillus fumigatus, general statement): sensitive
resistance in the presence of 3-AT ([1]; cells grown in the presence of maltose (e.g. 2% maltose), PglaA induced): increased resistance
resistance to 3-AT ([1]; cells grown in the presence of xylose (e.g. 1% xylose), PglaA repressed): decreased resistance
sensitivity of heterozygous drug-target strain compared with other heterozygote bar-coded strains [2]: significantly greater sensitivity

C[C@@H]1[C@H](O)[C@@H](C)/C=C/C=C/C=C/C=C/C=C/C=C/C=C/[C@H](O[C@@H]2O[C@H](C)[C@@H](O)[C@H](N)[C@@H]2O)C[C@@H]2O[C@](O)(C[C@@H](O)C[C@@H](O)[C@H](O)CC[C@@H](O)C[C@@H](O)CC(=O)O[C@H]1C)C[C@H](O)[C@H]2C(=O)O [AmB, amphotericin B]
overall success rate of therapy for IA [3]: 34%

CCCCNC(=O)n1c(NC(=O)OC)nc2ccccc21 [benomyl]
sensitivity of heterozygous drug-target strain compared with other heterozygote bar-coded strains [2]: significantly greater sensitivity

OC(Cn1cncn1)(Cn1cncn1)c1ccc(F)cc1F [fluconazole]
sensitivity of heterozygous drug-target strain compared with other heterozygote bar-coded strains [2]: significantly greater sensitivity

CC(=O)N1CCN(c2ccc(OCC3COC(Cn4ccnc4)(c4ccc(Cl)cc4Cl)O3)cc2)CC1 (stereo not shown) [ketoconazole]
resistance of wild-type strain CEA 10 compared with either knockout strain [4]: more resistant
resistance of AfERG11β knockout strain compared with AfERG11α knockout strain [5]: more resistant

tunicamycin
sensitivity of heterozygous drug-target strain compared with other heterozygote bar-coded strains [2]: significantly greater sensitivity
